Literature values, collected in patent US20230355701A1, “CO[…] COMPOUNDS” (CAAMTECH, INC., priority 2019, published 2023).
Like-named read-outs stand apart in the source and are kept apart here.

Tests used:
[1] = mediated through agonist activity at hMOR
[2] = target: human kappa opioid receptor (hKOR) (Homo sapiens, UniProt P41145)
[3] = target: T1, human delta opioid receptor (hDOR) (Homo sapiens, UniProt P41143)
hMOR = hMOR (Homo sapiens, UniProt P35372); conditions: for functional behaviour at hMOR: BRET functional assay
Chain of hMOR (P35372 whole entry): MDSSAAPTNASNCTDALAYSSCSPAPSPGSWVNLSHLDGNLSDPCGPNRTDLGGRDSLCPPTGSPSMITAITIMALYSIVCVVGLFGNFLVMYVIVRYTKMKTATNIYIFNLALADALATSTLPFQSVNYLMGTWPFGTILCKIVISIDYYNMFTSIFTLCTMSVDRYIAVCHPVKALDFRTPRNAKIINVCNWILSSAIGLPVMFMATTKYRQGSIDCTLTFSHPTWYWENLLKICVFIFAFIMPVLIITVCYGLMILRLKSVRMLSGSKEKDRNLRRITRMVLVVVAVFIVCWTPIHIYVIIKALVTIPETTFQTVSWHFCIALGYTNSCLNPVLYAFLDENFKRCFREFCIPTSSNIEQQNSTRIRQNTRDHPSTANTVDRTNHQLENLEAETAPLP

[4] = target: T1, human delta opioid receptor (hDOR); remark: listed apart in the source
[5] = intracerebroventricular administration
[6] = rats
[7] = dogs, given intraperitoneally or orally
[8] = mice
[9] = given intraperitoneally or orally

Chain of human kappa opioid receptor (hKOR) (P41145 whole entry): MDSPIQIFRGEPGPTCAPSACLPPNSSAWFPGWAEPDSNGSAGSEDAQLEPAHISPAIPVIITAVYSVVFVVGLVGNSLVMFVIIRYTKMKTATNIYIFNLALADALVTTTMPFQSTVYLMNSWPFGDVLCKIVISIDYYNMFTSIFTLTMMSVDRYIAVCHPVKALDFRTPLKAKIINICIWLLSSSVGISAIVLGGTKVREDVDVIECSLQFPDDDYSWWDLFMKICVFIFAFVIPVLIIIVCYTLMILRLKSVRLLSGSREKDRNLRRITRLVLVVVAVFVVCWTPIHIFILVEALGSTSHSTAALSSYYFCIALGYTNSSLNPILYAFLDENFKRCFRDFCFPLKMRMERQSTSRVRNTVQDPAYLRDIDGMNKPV
T1 sequence (P41143 whole entry): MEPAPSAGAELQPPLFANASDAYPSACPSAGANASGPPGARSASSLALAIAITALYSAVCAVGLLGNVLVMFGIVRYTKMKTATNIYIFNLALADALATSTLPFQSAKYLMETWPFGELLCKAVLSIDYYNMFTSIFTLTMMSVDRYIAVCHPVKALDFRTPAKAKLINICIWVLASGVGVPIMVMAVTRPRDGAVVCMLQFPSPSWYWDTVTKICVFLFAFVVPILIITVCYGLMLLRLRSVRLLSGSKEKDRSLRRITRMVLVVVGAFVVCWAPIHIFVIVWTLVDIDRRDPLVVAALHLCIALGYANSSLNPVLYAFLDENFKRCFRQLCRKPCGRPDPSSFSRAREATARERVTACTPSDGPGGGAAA

## CC[C@@H]1CN2CC[C@@]3(O)C(=Nc4cccc(OC)c43)[C@@H]2C[C@@H]1/C(=C\OC)C(=O)OC [7-OH, 7-hydroxymitragynine]
[1]
  analgesic effects: exhibits analgesic effects
[2]
  IC50: micromolar range
  functional behaviour at hKOR: competitive antagonists
[3]
  functional behaviour at hDOR: weak antagonist activity
hMOR
  functional behaviour at hMOR: partial agonists
[4]
  binding at hDOR: observed

## CC[C@@H]1CN2CCc3c([nH]c4cccc(OC)c34)[C@@H]2C[C@@H]1/C(=C\OC)C(=O)OC [Mitragynine]
[5]
  analgesic activity: active analgesic
[6]; administered subcutaneously
  analgesic activity: inactive
[6]; [9]
  analgesic potency: equivalent to codeine
[2]
  IC50: micromolar range
  functional behaviour at hKOR: competitive antagonists
[7]
  analgesic potency: equivalent to codeine
[3]
  functional behaviour at hDOR: weak antagonist activity
[8]; administered subcutaneously
  analgesic activity: inactive
[8]; [9]
  analgesic potency: equivalent to codeine
hMOR
  functional behaviour at hMOR: partial agonists
[4]
  binding at hDOR: negligible

## CC[C@@H]1CN2CCc3c([nH]c4cccc(OC)c34)[C@H]2C[C@@H]1/C(=C\OC)C(=O)OC [speciociliatine]
hMOR; hMOR
  antagonist activity at hMOR: competitive antagonist activity

## CCC1CN2CCc3c([nH]c4cccc(OC)c34)[C@@H]2C[C@@H]1/C(=C\OC)C(=O)OC (stereo partly drawn) [speciogynine]
hMOR; hMOR
  antagonist activity at hMOR: competitive antagonist activity

## C=C[C@H]1CN2CCc3c([nH]c4cccc(OC)c34)[C@@H]2C[C@@H]1/C(=C\OC)C(=O)OC [paynantheine]
hMOR; hMOR
  IC50: micromolar range
  antagonist activity at hMOR: competitive antagonist activity
